Laboratory results from the NIST ThermoML archive (doi:10.1021/acs.jced.5b00724).
Where “and” joins values, the source holds several entries; their conditions need not be identical. Identical values can stand only once.

What was measured:
[1] = Liquid; for mass density: Vibrating tube method
[2] = refractive index (Na D-line) (dimensionless); conditions: 298.15 K; 101.33 kPa; Liquid; Standard Abbe refractometry
[3] = Boiling temperature at pressure P; conditions: Liquid, Ebulliometric method (Recirculating still)

CC1CCC(=O)O1 (stereo not given) [γ-valerolactone]
[1]
Conditions | mass density | vapor or sublimation pressure [kPa]
293.15 K, 186 kPa | 1053.38 kg/m3 | –
293.15 K, 187.01 kPa | 1053.43 kg/m3 | –
293.15 K, 476.37 kPa | 1053.68 kg/m3 | –
293.15 K, 977 kPa | 1054.07 kg/m3 | –
293.15 K, 1979.3 kPa | 1054.81 kg/m3 | –
293.15 K, 2978.5 kPa | 1055.47 kg/m3 | –
293.15 K, 3976.8 kPa | 1056.08 kg/m3 | –
293.15 K, 4978.1 kPa | 1056.65 kg/m3 | –
298 K, 101.33 kPa | 1049.2 kg/m3 | –
298.1 K, 107 kPa | 1048.8 kg/m3 | –
298.16 K, 187.01 kPa | 1048.68 kg/m3 | –
298.16 K, 189.01 kPa | 1048.83 kg/m3 | –
298.16 K, 480.38 kPa | 1048.97 kg/m3 | –
298.16 K, 978 kPa | 1049.41 kg/m3 | –
298.16 K, 1980.3 kPa | 1050.16 kg/m3 | –
298.16 K, 2980.5 kPa | 1050.86 kg/m3 | –
298.16 K, 3977.8 kPa | 1051.48 kg/m3 | –
298.16 K, 4976.1 kPa | 1052.05 kg/m3 | –
350.18 K, Closed cell (Static) method | – | 1.2
353.15 K, 187.01 kPa | 996.384 kg/m3 | –
353.15 K, 190.01 kPa | 996.734 kg/m3 | –
353.15 K, 194.01 kPa | 997.077 kg/m3 | –
353.15 K, 198.02 kPa | 997.127 kg/m3 | –
353.15 K, 484.38 kPa | 996.824 kg/m3 | –
353.15 K, 492.39 kPa | 997.272 kg/m3 | –
353.15 K, 979.01 kPa | 997.655 kg/m3 | –
353.15 K, 984.01 kPa | 997.904 kg/m3 | –
353.15 K, 985.01 kPa | 997.898 kg/m3 | –
353.15 K, 1981.3 kPa | 998.74 kg/m3 | –
353.15 K, 1987.3 kPa | 998.832 kg/m3 | –
353.15 K, 1988.3 kPa | 998.837 kg/m3 | –
353.15 K, 2979.5 kPa | 999.633 kg/m3 | –
353.15 K, 2985.5 kPa | 999.73 kg/m3 and 999.724 kg/m3 | –
353.15 K, 3979.8 kPa | 1000.43 kg/m3 | –
353.15 K, 3983.8 kPa | 1000.53 kg/m3 | –
353.15 K, 3986.8 kPa | 1000.53 kg/m3 | –
353.15 K, 4978.1 kPa | 1001.2 kg/m3 | –
353.15 K, 4983.1 kPa | 1001.29 kg/m3 | –
353.15 K, 4984.1 kPa | 1001.29 kg/m3 | –
353.16 K, 188.01 kPa | 997.169 kg/m3 | –
353.16 K, 489.39 kPa | 997.314 kg/m3 | –
393.15 K, 180 kPa | 958.067 kg/m3 | –
393.15 K, 182 kPa | 958.857 kg/m3 and 958.463 kg/m3 | –
393.15 K, 486.38 kPa | 958.065 kg/m3 | –
393.15 K, 491.39 kPa | 958.888 kg/m3 | –
393.15 K, 978 kPa | 959.43 kg/m3 | –
393.15 K, 984.01 kPa | 959.712 kg/m3 | –
393.15 K, 1981.3 kPa | 960.847 kg/m3 | –
393.15 K, 1985.3 kPa | 960.883 kg/m3 | –
393.15 K, 2980.5 kPa | 961.927 kg/m3 | –
393.15 K, 2984.5 kPa | 961.921 kg/m3 | –
393.15 K, 3978.8 kPa | 962.917 kg/m3 | –
393.15 K, 3981.8 kPa | 962.913 kg/m3 | –
393.15 K, 4977.1 kPa | 963.866 kg/m3 | –
393.15 K, 4979.1 kPa | 963.861 kg/m3 | –
393.16 K, 203.03 kPa | 958.939 kg/m3 | –
433.14 K, 184 kPa | 918.984 kg/m3 | –
433.15 K, 181 kPa | 918.395 kg/m3 | –
433.15 K, 492.39 kPa | 919.562 kg/m3 | –
433.15 K, 1984.3 kPa | 921.775 kg/m3 | –
433.15 K, 2984.5 kPa | 923.091 kg/m3 | –
433.15 K, 3983.8 kPa | 924.314 kg/m3 | –
433.15 K, 4980.1 kPa | 925.496 kg/m3 | –
433.16 K, 491.39 kPa | 919.299 kg/m3 | –
433.16 K, 982.01 kPa | 920.309 kg/m3 | –
453.14 K, 183 kPa | 898.494 kg/m3 | –
453.15 K, 199.02 kPa | 898.908 kg/m3 | –
453.15 K, 490.39 kPa | 898.859 kg/m3 | –
453.15 K, 983.01 kPa | 900.059 kg/m3 | –
453.15 K, 1982.3 kPa | 901.6 kg/m3 | –
453.15 K, 2985.5 kPa | 903.051 kg/m3 | –
453.15 K, 3983.8 kPa | 904.412 kg/m3 | –
453.15 K, 4981.1 kPa | 905.731 kg/m3 | –

Conditions | refractive index
[2] | 1.4316

[3]
Conditions | Boiling temperature at pressure P [°C]
0.58 kPa | 65.0
1.14 kPa | 77.5
1.49 kPa | 83.04
1.86 kPa | 87.47
2.49 kPa | 93.77
4.37 kPa | 106.5
8.66 kPa | 123.7
10.61 kPa | 129.4
11.92 kPa | 132.8
16.51 kPa | 142.2
20.17 kPa | 148.1
27.32 kPa | 157.78
35.64 kPa | 166.5
43.21 kPa | 173.18
61.04 kPa | 185.72
82.18 kPa | 197.04
